Several values for one entry are separate records, joined by “and”; a condition that tells them apart may be missing. Identical values can stand only once. Toxic doses and inconclusive results are not listed.

In this experiment the test system is P388 leukemia ip, CD2F1 mice, survival T/C. The experiment is described as follows: NCI In Vivo Anticancer Drug Screen. Data for tumor model P388 Leukemia (intraperitoneal) in CD2F1 (CDF1) mice. The conditions noted are these: endpoint: median survival time, higher = longer survival. The gist of the method:
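Mice carrying the transplanted tumor received test compound or vehicle. Survival was recorded in each group, and the value is the treated-group measurement divided by that of the vehicle-treated control group.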

[1] abbreviates: dose: 60.0 mg/kg/injection, schedule: Q01DX005 (ip), vehicle: saline with Tween-80.
The mark [2] stands for this setting: dose: 120.0 mg/kg/injection, schedule: Q01DX005 (ip), vehicle: saline with Tween-80.
The mark [3] stands for this setting: dose: 240.0 mg/kg/injection, schedule: Q01DX005 (ip), vehicle: saline with Tween-80.
Where [4] appears, read: dose: 50.0 mg/kg/injection, schedule: Q01DX009 (ip), vehicle: saline with Tween-80.
The mark [5] stands for this setting: dose: 100.0 mg/kg/injection, schedule: Q01DX009 (ip), vehicle: saline with Tween-80.
[6] abbreviates: dose: 200.0 mg/kg/injection, schedule: Q01DX009 (ip), vehicle: saline with Tween-80.
The mark [7] stands for this setting: dose: 400.0 mg/kg/injection, schedule: Q01DX009 (ip), vehicle: saline with Tween-80.
Setting [8] is: dose: 5.0 mg/kg/injection, schedule: Q01DX009 (ip), vehicle: Klucel (hydroxypropylcellulose) (HPC).
[9] abbreviates: dose: 10.0 mg/kg/injection, schedule: Q01DX009 (ip), vehicle: Klucel (hydroxypropylcellulose) (HPC).
Where [10] appears, read: dose: 50.0 mg/kg/injection, schedule: Q01DX005 (ip), vehicle: Klucel (hydroxypropylcellulose) (HPC).
The mark [11] stands for this setting: dose: 100.0 mg/kg/injection, schedule: Q01DX005 (ip), vehicle: Klucel (hydroxypropylcellulose) (HPC).
The mark [12] stands for this setting: dose: 200.0 mg/kg/injection, schedule: Q01DX005 (ip), vehicle: Klucel (hydroxypropylcellulose) (HPC).
Where [13] appears, read: dose: 60.0 mg/kg/injection, schedule: Q01DX005 (ip), vehicle: Klucel (hydroxypropylcellulose) (HPC).
Setting [14] is: dose: 120.0 mg/kg/injection, schedule: Q01DX005 (ip), vehicle: Klucel (hydroxypropylcellulose) (HPC).
[15] abbreviates: dose: 100.0 mg/kg/injection, schedule: Q01DX001 (ip), vehicle: saline with Tween-80.
[16] abbreviates: dose: 50.0 mg/kg/injection, schedule: Q01DX005 (ip), vehicle: saline with Tween-80.
The mark [17] stands for this setting: dose: 200.0 mg/kg/injection, schedule: Q01DX005 (ip), vehicle: saline with Tween-80.

On to `CN(C)CCCN1c2ccccc2Sc2ccc(C(F)(F)F)cc21`, for which the T/C (dose: 12.5 mg/kg/injection, schedule: Q01DX009 (ip), vehicle: saline with Tween-80) is 123 % of control.
As to `Cc1cc(O)c2c(c1)C(=O)C13C(=C2O)C(=O)C2C(O)C1C1C(O)C3C(=O)C3=C(O)c4c(O)cc(C)cc4C(=O)C321` (configuration not stated), the T/C is 110 % of control (dose: 3.12 mg/kg/injection, schedule: Q01DX005 (ip), vehicle: Klucel (hydroxypropylcellulose) (HPC)) and 100 % of control (dose: 6.25 mg/kg/injection, schedule: Q01DX005 (ip), vehicle: Klucel (hydroxypropylcellulose) (HPC)).
As for `COC(SC)(C(=O)O)c1cc(-c2c(Cl)cccc2Cl)no1` (configuration not stated), the T/C reads like this: under setting [1], 96 % of control; under setting [2], 93 % of control; under setting [3], 112 % of control.
`CCOC(=O)c1ccc(Nc2sc(C(=O)c3ccc(Br)cc3)c(N)c2C#N)cc1`: the T/C runs as follows: under setting [4], 100 % of control; under setting [5], 108 % of control; under setting [6], 90 % of control; under setting [7], 86 % of control.
For `COc1cc2c(cc1OC)C(=O)C(=C1C=CN(C)C=C1)N=C2`, the T/C (dose: 100.0 mg/kg/injection, schedule: Q04DX003 (ip), vehicle: saline) was 101 % of control; the T/C (dose: 200.0 mg/kg/injection, schedule: Q04DX003 (ip), vehicle: saline) is 95 % of control; the T/C (dose: 400.0 mg/kg/injection, schedule: Q04DX003 (ip), vehicle: saline) was 100 % of control.
Regarding `CCCCCc1ccccc1O`, the T/C reads like this: under setting [4], 100 % of control; under setting [5], 95 % of control.
In the case of `O=[N+]([O-])c1ccc(-c2nc3ncncc3[nH]2)cc1`, the T/C runs as follows: (dose: 6.25 mg/kg/injection, schedule: Q01DX009 (ip), vehicle: Klucel (hydroxypropylcellulose) (HPC)) 107 % of control; (dose: 12.5 mg/kg/injection, schedule: Q01DX009 (ip), vehicle: Klucel (hydroxypropylcellulose) (HPC)) 99 % of control.
For the compound `CC(CN)OC12CC3CC(CC(C3)C1)C2` (configuration not stated), the T/C was 100 % of control under setting [1] and 99 % of control under setting [2].
Turning to `O=c1c(N=Nc2ccc(Br)cc2)c(O)n(-c2ccccc2Cl)c(=S)n1-c1ccccc1`, the T/C by setting is: (dose: 50.0 mg/kg/injection, schedule: Q01DX001 (ip), vehicle: Klucel (hydroxypropylcellulose) (HPC)) 94 % of control; (dose: 100.0 mg/kg/injection, schedule: Q01DX001 (ip), vehicle: Klucel (hydroxypropylcellulose) (HPC)) 98 % of control; (dose: 200.0 mg/kg/injection, schedule: Q01DX001 (ip), vehicle: Klucel (hydroxypropylcellulose) (HPC)) 94 % of control.
As for `CC1SC(=O)NN=C1c1ccccc1` (configuration not stated), the T/C is 94 % of control under setting [4], 97 % of control under setting [5] and 106 % of control under setting [6].
On to `CC(=O)OCC1OC([S-])C(OC(C)=O)C(OC(C)=O)C1OC(C)=O.CC[PH+](CC)CC.CC[PH+](CC)CC.[Au].[Au]` (configuration not stated), for which the T/C was 121 % of control under setting [8] and 163 % of control under setting [9].
For `COc1cccc(Cc2ccncc2)c1OC`, the T/C reads like this: (dose: 12.5 mg/kg/injection, schedule: Q01DX009 (ip), vehicle: water) 101 % of control; (dose: 25.0 mg/kg/injection, schedule: Q01DX009 (ip), vehicle: water) 100 % of control; (dose: 50.0 mg/kg/injection, schedule: Q01DX009 (ip), vehicle: water) 100 % of control; (dose: 100.0 mg/kg/injection, schedule: Q01DX009 (ip), vehicle: water) 102 % of control; (dose: 200.0 mg/kg/injection, schedule: Q01DX009 (ip), vehicle: water) 103 % of control.
Consider `CC1(C)OC2COC3OC(C)(C)OC3(/C=N\NC(=O)c3cc4cc(OCc5ccccc5)ccc4[nH]3)C2O1` (configuration not stated), for which the T/C is 101 % of control under setting [10], 95 % of control under setting [11] and 97 % of control under setting [12].
`N=C(N)c1ccc(OCCCCOc2ccc(N)cc2)cc1`: the T/C reads like this: under setting [13], 97 % of control; under setting [14], 101 % of control.
With `O=NN(CCCl)C(=O)Oc1ccc(Cl)cc1Cl`, the T/C (dose: 3.12 mg/kg/injection, schedule: Q01DX001 (ip), vehicle: saline with Tween-80) was 106 % of control; the T/C (dose: 6.25 mg/kg/injection, schedule: Q01DX001 (ip), vehicle: saline with Tween-80) was 118 % of control; the T/C (dose: 25.0 mg/kg/injection, schedule: Q01DX001 (ip), vehicle: saline with Tween-80) is 123 % of control; the T/C (dose: 50.0 mg/kg/injection, schedule: Q01DX001 (ip), vehicle: saline with Tween-80) is 109 % of control; the T/C under setting [15] is 122 % of control; the T/C (dose: 150.0 mg/kg/injection, schedule: Q01DX001 (ip), vehicle: saline with Tween-80) is 118 % of control.
Consider `Cc1ccc(SCc2c(COc3ccc(Cl)cc3)sc3ccc(Cl)cc23)cc1`, for which the T/C reads like this: under setting [15], 90 % of control; (dose: 200.0 mg/kg/injection, schedule: Q01DX001 (ip), vehicle: saline with Tween-80) 86 % of control; (dose: 400.0 mg/kg/injection, schedule: Q01DX001 (ip), vehicle: saline with Tween-80) 100 % of control.
Take `C/C=C(\C)C(=O)OC1C2C(C)C(=O)OC2C(O)C(C)C2C=CC(=O)C21C` (configuration not stated): the T/C runs as follows: (dose: 2.5 mg/kg/injection, schedule: Q01DX009 (ip), vehicle: Klucel (hydroxypropylcellulose) (HPC)) 100 % of control; under setting [8], 106 % of control; under setting [9], 99 % of control; (dose: 20.0 mg/kg/injection, schedule: Q01DX009 (ip), vehicle: Klucel (hydroxypropylcellulose) (HPC)) 108 % of control.
With `O=C(/C(=C(\C(=O)c1ccccc1)c1ccccc1)c1ccccc1)c1ccccc1`, the T/C reads like this: under setting [4], 99 % of control; under setting [5], 92 % of control; under setting [6], 87 % of control; under setting [7], 86 % of control.
Consider `CC(C)(C)OC(=O)NC(Cc1ccc(OCc2ccccc2)cc1)C(=O)ON1C(=O)CCC1=O` (configuration not stated), for which the T/C was 93 % of control under setting [10], 88 % of control under setting [11] and 100 % of control under setting [12].
For `COc1ccc(CCNCC(O)CO/N=C(\C)c2ccc(N(C)C)cc2)cc1OC` (configuration not stated), the T/C under setting [13] is 104 % of control; the T/C under setting [14] is 101 % of control; the T/C (dose: 240.0 mg/kg/injection, schedule: Q01DX005 (ip), vehicle: Klucel (hydroxypropylcellulose) (HPC)) is 97 % of control.
On to `CC(C)=C1C2C=CC1C1C2C(=O)C2OC2(CO)C1O` (configuration not stated), for which the T/C by setting is: under setting [16], 100 % of control; (dose: 100.0 mg/kg/injection, schedule: Q01DX005 (ip), vehicle: saline with Tween-80) 100 % of control; under setting [17], 101 % of control.
With `Cn1cc(CCC(=O)C2C=CC=CC2=NC(=O)CCCl)c2ccccc21` (configuration not stated), the T/C runs as follows: under setting [1], 107 % of control; under setting [2], 101 % of control; under setting [3], 94 % of control.
On to `C=CC(C=C)O[Si](C)(C)C(C)(C)C`, for which the T/C is 101 % of control (dose: 23.0 mg/kg/injection, schedule: Q01DX005 (ip), vehicle: saline); 105 % of control (dose: 46.0 mg/kg/injection, schedule: Q01DX005 (ip), vehicle: saline); 105 % of control (dose: 92.0 mg/kg/injection, schedule: Q01DX005 (ip), vehicle: saline).
Turning to `CC(C)C(NC(=O)[C@@H](C(C)C)N1C(=O)c2ccccc2C1=O)C(=O)O` (some centres not stated), the T/C by setting is: (dose: 12.5 mg/kg/injection, schedule: Q01DX005 (ip), vehicle: saline with Tween-80) 101 % of control; (dose: 25.0 mg/kg/injection, schedule: Q01DX005 (ip), vehicle: saline with Tween-80) 101 % of control; under setting [16], 99 % of control and 88 % of control; under setting [17], 100 % of control.
On to `COC12CC(=O)C(C(C)=O)=C(O)C1(C)c1c(O)c(C)c(O)c(C(C)=O)c1O2` (configuration not stated), for which the T/C was 105 % of control and 108 % of control (dose: 6.25 mg/kg/injection, schedule: Q01DX009 (ip), vehicle: gum acacia); 109 % of control and 111 % of control (dose: 12.5 mg/kg/injection, schedule: Q01DX009 (ip), vehicle: gum acacia); 111 % of control and 115 % of control (dose: 25.0 mg/kg/injection, schedule: Q01DX009 (ip), vehicle: gum acacia); 107 % of control and 113 % of control (dose: 50.0 mg/kg/injection, schedule: Q01DX009 (ip), vehicle: gum acacia).

Values taken from PubChem BioAssay AID330 (DTP/NCI, 2004).
